Paper PMC10825183 (Nature Communications, 2024)
Where “and” joins values, the source holds several entries; their conditions need not be identical. Equal values may be shown once. Read-outs that look alike come from different tables or passages of the source.

What was measured:
full length mHCN2 [1] = biological target: T1, full length mHCN2 (Mus musculus, UniProt O88703); experiment: Confocal patch-clamp fluorometry (cPCF), oocyte macropatches; assay type: binding; settings: for factor of relative fluorescence increase: individual patches
T1 construct: to full length mHCN2 and ΔDE (mHCN2 1-640) mutant channels, both expressed in Xenopus oocytes; expressed in transfected cells; host or cells: Xenopus laevis oocytes (cRNA injected; pGEMHE vector); excised macropatches
T1 sequence (O88703 1-863): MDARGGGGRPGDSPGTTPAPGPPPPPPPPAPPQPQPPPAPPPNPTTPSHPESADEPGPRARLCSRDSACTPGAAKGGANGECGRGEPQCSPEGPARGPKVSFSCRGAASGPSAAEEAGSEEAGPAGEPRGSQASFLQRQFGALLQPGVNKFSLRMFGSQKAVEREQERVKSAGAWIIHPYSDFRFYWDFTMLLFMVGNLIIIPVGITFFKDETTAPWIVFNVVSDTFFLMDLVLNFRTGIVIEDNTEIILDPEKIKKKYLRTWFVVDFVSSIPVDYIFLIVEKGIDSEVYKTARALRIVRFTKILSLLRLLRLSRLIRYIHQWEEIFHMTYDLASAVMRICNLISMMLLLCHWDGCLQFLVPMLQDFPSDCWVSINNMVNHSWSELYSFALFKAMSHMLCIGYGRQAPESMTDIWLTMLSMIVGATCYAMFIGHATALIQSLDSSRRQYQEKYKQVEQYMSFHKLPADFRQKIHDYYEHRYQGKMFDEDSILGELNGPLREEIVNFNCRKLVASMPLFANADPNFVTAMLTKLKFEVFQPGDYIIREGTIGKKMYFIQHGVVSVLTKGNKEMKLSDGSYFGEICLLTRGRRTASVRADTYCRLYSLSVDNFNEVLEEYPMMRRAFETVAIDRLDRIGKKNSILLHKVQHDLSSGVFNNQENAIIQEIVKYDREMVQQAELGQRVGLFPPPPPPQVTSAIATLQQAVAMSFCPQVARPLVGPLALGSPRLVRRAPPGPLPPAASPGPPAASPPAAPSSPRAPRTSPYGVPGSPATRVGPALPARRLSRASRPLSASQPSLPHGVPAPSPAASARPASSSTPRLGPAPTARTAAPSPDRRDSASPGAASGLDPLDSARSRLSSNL
Experimental: (§1) We tested this hypothesis using confocal patch-clamp fluorometry (cPCF)[8], measuring current activation and ligand binding in parallel.
(§2) Oocytes were surgically removed from adult females of the South African clawed frog Xenopus laevis under anesthesia (0.3% MS-222 (tricaine methanesulfonate) (Pharmaq, Fordingbridge, UK)). The surgery procedures were carried out in accordance with the German Animal Welfare Act with the approval of the Thuringian State Office for Consumer Protection on 30.08.2013 and 09.05.2018. The oocytes were treated with collagenase A (3 mg/mL; Roche Diagnostics (Grenzach-Wyhlen, Germany)) for 105 min in Ca^2+-free Barth solution containing 82.5 mM NaCl, 2 mM KCl, 1 mM MgCl2, and 5 mM HEPES (pH 7.5). Oocytes of stages IV and V were manually dissected and injected with cRNA-encoding mHCN2 channels of Mus musculus or constructs carrying a point mutation. After injection with cRNA, the oocytes were cultured at 18 °C for 2–10 days in Barth solution containing 84 mM NaCl, 1 mM KCl, 2.4 mM NaHCO3, 0.82 mM MgSO4, 0.41 mM CaCl2, 0.33 mM Ca(NO3)2, 7.5 mM Tris, cefuroxime, and penicillin/streptomycin (pH 7.4). The procedures had approval from the authorized animal ethics committee of the Friedrich Schiller University Jena. The methods were performed according to approved guidelines. Oocytes harvested in our laboratory were complemented with ready-to-use oocytes purchased from EcoCyte Bioscience (Dortmund, Germany).
(§3) The recordings were performed with an LSM 710 confocal microscope (Carl Zeiss, Jena, Germany) and were triggered by the ISO3 software (MFK, Niedernhausen, Germany). To distinguish the fluorescence of the nonbound f1cAMP from that of the bound f1cAMP, a second, chemically related dye, DY647 (Dyomics, Jena, Germany), was also added to the bath solution. The 543- and 633-nm lines of an He-Ne laser were used to excite f1cAMP and DY647, respectively. For quantifying the bound f1cAMP, the fluorescence intensities of the red and the green channels were corrected for small offsets, and the fluorescence in the red channel was scaled to the fluorescence in the green channel in the bath. The difference between the measured green and the scaled red profile for each pixel of the confocal image represents the fraction of the fluorescence signal originating from the bound f1cAMP. The free patch membrane (patch dome) only was used to quantify binding by setting a mask at a region of interest. The fluorescence, F, was averaged over all pixels inside this mask and normalized in each patch concerning the fluorescence at saturating (f1cAMP) and full channel activation (−130 mV), Fmax. The recording rate of the confocal images was 10 Hz.

ΔDE (mHCN2 1-640) = biological target: T2, ΔDE (mHCN2 1-640) (Mus musculus, UniProt O88703); experiment: as above; assay type: binding; settings: for factor of relative fluorescence increase: individual patches
T2 construct: full length mHCN2 and ΔDE (mHCN2 1-640) mutant channels, both expressed in Xenopus oocytes; expressed in transfected cells; host or cells: Xenopus laevis oocytes (cRNA injection, pGEMHE)
T2 sequence (O88703 1-640): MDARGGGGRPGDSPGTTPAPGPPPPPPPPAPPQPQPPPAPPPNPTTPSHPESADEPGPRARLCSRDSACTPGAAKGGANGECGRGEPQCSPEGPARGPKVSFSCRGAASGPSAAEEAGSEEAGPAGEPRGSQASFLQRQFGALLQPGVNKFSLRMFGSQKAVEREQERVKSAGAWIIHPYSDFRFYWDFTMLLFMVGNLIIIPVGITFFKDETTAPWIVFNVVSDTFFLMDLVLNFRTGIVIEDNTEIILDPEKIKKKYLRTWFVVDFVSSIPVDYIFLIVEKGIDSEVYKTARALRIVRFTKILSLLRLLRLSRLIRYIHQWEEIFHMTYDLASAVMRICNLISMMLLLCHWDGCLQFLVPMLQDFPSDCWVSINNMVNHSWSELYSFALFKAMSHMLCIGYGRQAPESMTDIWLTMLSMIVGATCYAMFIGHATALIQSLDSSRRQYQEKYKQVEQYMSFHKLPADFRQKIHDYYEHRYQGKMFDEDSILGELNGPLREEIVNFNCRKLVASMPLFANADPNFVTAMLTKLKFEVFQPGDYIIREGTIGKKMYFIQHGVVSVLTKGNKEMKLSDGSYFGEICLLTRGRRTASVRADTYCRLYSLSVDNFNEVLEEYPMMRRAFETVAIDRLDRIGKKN
Experimental: as §1, §2, §3

full length mHCN2 [2] = biological target: T1, full length mHCN2; settings: read-out: binding affinity BC50, cited from earlier work

For 8-Cy3B-AHT-cAMP [f1cAMP], the “mean increase of fluorescence intensity upon activation, F–130 mV/F−30mV” value (full length mHCN2 [1]; 0.25 µM f1cAMP, n = 9) was 1.6 ± 0.1, the “F-130 mV/F−30mV” value (full length mHCN2 [1]; 2.5 µM f1cAMP, n = 7) was 1.1 ± 0.04 and the “factor of relative fluorescence increase” value (full length mHCN2 [1]; fcAMP 0.25 µM) was 1.7 and 1.6 and 1.9 and 2.2 and 1.3 and 1.2. The “factor of relative fluorescence increase” value (full length mHCN2 [1]; fcAMP 2.5 µM) was 0.9 and 1.1 and 1.3 and 1.0 and 1.2, the “mean increase of fluorescence intensity upon activation, F–130 mV/F−30mV” value (ΔDE (mHCN2 1-640); 0.25 µM f1cAMP, n = 4) was 2.1 ± 0.3 and the “factor of relative fluorescence increase” value (ΔDE (mHCN2 1-640); fcAMP 0.25 µM) was 1.6 and 2.4 and 1.7 and 2.6. The “factor of relative fluorescence increase” value (ΔDE (mHCN2 1-640); fcAMP 2.5 µM) was 1.1 and 1.3 and 1.2, the Kd (full length mHCN2 [2]; activated mHCN2 channels) was 250 nM and the Kd (full length mHCN2 [2]; non-activated mHCN2 channels) was 980 nM.
